Values quoted from earlier work, collected in patent US5585379A, “Acyclovir antiviral gel composition” (AGIS Industries (1983) Ltd., priority 1992, dated 1996).
Like-named read-outs stand apart in the source and are kept apart here.

How the values were obtained:
herpes simplex virus = settings: in vitro and in vivo
[1] = oral
[2] = test system: herpes simplex virus infections

SMILES: Nc1nc2c(ncn2COCCO)c(=O)[nH]1 [Acyclovir, 9-(2-hydroxyethoxymethyl)guanine]
- solubility in hydrophobic solvent systems (hydrophobic solvent systems): almost totally insoluble in hydrophobic solvent systems
- solubility in water (words): low solubility in water
- solubility in water (words) (listed as acyclovir): poor water-solubility
- antiviral activity against herpes simplex virus (words) (herpes simplex virus): active against herpes simplex virus
- antiviral activity against herpes simplex virus (words) (herpes simplex virus; listed as acyclovir): potent antiviral activity against herpes simplex virus
- therapeutic effect on vulvar vestibulitis [1]: therapeutic effect on vulvar vestibulitis
- efficacy of topical therapy compared to oral or parenteral [2]: lacks efficacy as compared to oral or parenteral administrations
